15 compounds from PubChem BioAssay AID256 (DTP/NCI, 2004) can be followed below.

Values joined by “and” are separate entries in the source; they are usually repeats but may differ in a detail not shown here. Equal values may be shown once. Inconclusive results and toxic doses are left out.

The test concerns CD2F1 mice, L1210 leukemia ip, survival T/C. The experiment in a line: NCI In Vivo Anticancer Drug Screen. Data for tumor model L1210 Leukemia (intraperitoneal) in CD2F1 (CDF1) mice. The note with it: higher = longer survival. In short, it runs like this:
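Compound-dosed mice with transplantable tumor versus matched vehicle controls; endpoint ratio T/C reported.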

Where [1] appears, read: endpoint: mean survival time, dose: 50.0 mg/kg/injection, schedule: Q01DX009 (ip), vehicle: saline with Tween-80.
The mark [2] stands for this setting: endpoint: mean survival time, dose: 100.0 mg/kg/injection, schedule: Q01DX009 (ip), vehicle: saline with Tween-80.
Setting [3] is: endpoint: mean survival time, dose: 100.0 mg/kg/injection, schedule: Q04DX003 (ip), vehicle: saline with Tween-80.
[4] abbreviates: endpoint: mean survival time, dose: 200.0 mg/kg/injection, schedule: Q04DX003 (ip), vehicle: saline with Tween-80.
Setting [5] is: endpoint: mean survival time, dose: 100.0 mg/kg/injection, schedule: Q01DX001 (ip), vehicle: saline.
The mark [6] stands for this setting: endpoint: mean survival time, dose: 200.0 mg/kg/injection, schedule: Q01DX001 (ip), vehicle: saline.
[7] abbreviates: endpoint: mean survival time, dose: 400.0 mg/kg/injection, schedule: Q01DX001 (ip), vehicle: saline.
[8] abbreviates: endpoint: mean survival time, dose: 400.0 mg/kg/injection, schedule: Q04DX003 (ip), vehicle: saline with Tween-80.
Setting [9] is: endpoint: mean survival time, dose: 200.0 mg/kg/injection, schedule: Q01DX009 (ip), vehicle: saline with Tween-80.
[10] abbreviates: endpoint: mean survival time, dose: 400.0 mg/kg/injection, schedule: Q01DX009 (ip), vehicle: saline with Tween-80.

For `N#Cc1cc([N+](=O)[O-])ccc1Cl`, the T/C is, setting by setting: under setting [1], 96 % of control; under setting [2], 91 % of control; under setting [3], 105 % of control; under setting [4], 103 % of control.

Regarding `COC1CC2c3ccccc3C1C(C)=[N+]2C` (centres undefined), the T/C is, setting by setting: (endpoint: mean survival time, dose: 100.0 mg/kg/injection, schedule: Q04DX003 (ip), vehicle: saline) 101 % of control; (endpoint: mean survival time, dose: 200.0 mg/kg/injection, schedule: Q04DX003 (ip), vehicle: saline) 95 % of control; (endpoint: mean survival time, dose: 400.0 mg/kg/injection, schedule: Q04DX003 (ip), vehicle: saline) 94 % of control.

Take `CC(C)NCC(O)c1ccc(O)c(O)c1` (centres undefined): the T/C (endpoint: mean survival time, dose: 4.0 mg/kg/injection, schedule: Q01DX009 (ip), vehicle: saline) was 101 % of control; the T/C (endpoint: mean survival time, dose: 8.0 mg/kg/injection, schedule: Q01DX009 (ip), vehicle: saline) was 107 % of control and 109 % of control; the T/C (endpoint: mean survival time, dose: 16.0 mg/kg/injection, schedule: Q01DX001 (ip), vehicle: saline) is 96 % of control; the T/C (endpoint: mean survival time, dose: 16.0 mg/kg/injection, schedule: Q01DX009 (ip), vehicle: saline) was 107 % of control and 113 % of control; the T/C (endpoint: mean survival time, dose: 32.0 mg/kg/injection, schedule: Q01DX001 (ip), vehicle: saline) was 100 % of control; the T/C (endpoint: mean survival time, dose: 32.0 mg/kg/injection, schedule: Q01DX009 (ip), vehicle: saline) was 104 % of control and 107 % of control. In addition, the T/C is 95 % of control (endpoint: mean survival time, dose: 50.0 mg/kg/injection, schedule: Q01DX001 (ip), vehicle: saline); 98 % of control and 102 % of control (endpoint: mean survival time, dose: 64.0 mg/kg/injection, schedule: Q01DX001 (ip), vehicle: saline); 121 % of control (endpoint: mean survival time, dose: 64.0 mg/kg/injection, schedule: Q01DX009 (ip), vehicle: saline); 104 % of control under setting [5]; 108 % of control (endpoint: mean survival time, dose: 100.0 mg/kg/injection, schedule: Q01DX009 (ip), vehicle: saline); 100 % of control and 105 % of control (endpoint: mean survival time, dose: 128.0 mg/kg/injection, schedule: Q01DX001 (ip), vehicle: saline). The T/C reads like this: (endpoint: mean survival time, dose: 178.0 mg/kg/injection, schedule: Q01DX009 (ip), vehicle: saline) 112 % of control; under setting [6], 104 % of control; (endpoint: mean survival time, dose: 200.0 mg/kg/injection, schedule: Q01DX009 (ip), vehicle: saline) 111 % of control; (endpoint: mean survival time, dose: 256.0 mg/kg/injection, schedule: Q01DX001 (ip), vehicle: other) 102 % of control; (endpoint: mean survival time, dose: 256.0 mg/kg/injection, schedule: Q01DX001 (ip), vehicle: saline) 105 % of control; (endpoint: mean survival time, dose: 266.0 mg/kg/injection, schedule: Q01DX009 (ip), vehicle: saline) 120 % of control. Besides, the T/C was 110 % of control under setting [7]; 122 % of control (endpoint: mean survival time, dose: 400.0 mg/kg/injection, schedule: Q01DX009 (ip), vehicle: saline); 112 % of control (endpoint: mean survival time, dose: 600.0 mg/kg/injection, schedule: Q01DX009 (ip), vehicle: saline).

On to `CC(O)/C=C/c1ccccc1O` (centres undefined), for which the T/C reads like this: under setting [3], 90 % of control; under setting [4], 96 % of control; under setting [8], 93 % of control.

Consider `CCOC(=O)c1cnn(C)c1N`, for which the T/C was 103 % of control under setting [5]; 102 % of control under setting [3]; 103 % of control under setting [6]; 102 % of control under setting [4]; 97 % of control under setting [7]; 104 % of control under setting [8].

Take `C#CCOCCC(=O)O`: the T/C is 102 % of control (endpoint: mean survival time, dose: 50.0 mg/kg/injection, schedule: Q01DX009 (ip), vehicle: acetone); 100 % of control (endpoint: mean survival time, dose: 100.0 mg/kg/injection, schedule: Q01DX009 (ip), vehicle: acetone); 97 % of control (endpoint: mean survival time, dose: 200.0 mg/kg/injection, schedule: Q01DX009 (ip), vehicle: acetone).

For `C[As](C)SCC1OC(n2ccc(=O)[nH]c2=O)CC1O` (centres undefined), the T/C is 97 % of control (endpoint: median survival time, dose: 12.5 mg/kg/injection, schedule: Q01DX005 (ip), vehicle: distilled water + Tween-80); 104 % of control (endpoint: median survival time, dose: 25.0 mg/kg/injection, schedule: Q01DX005 (ip), vehicle: distilled water + Tween-80); 106 % of control (endpoint: median survival time, dose: 50.0 mg/kg/injection, schedule: Q01DX005 (ip), vehicle: distilled water + Tween-80); 109 % of control (endpoint: median survival time, dose: 100.0 mg/kg/injection, schedule: Q01DX005 (ip), vehicle: distilled water + Tween-80).

As to `O=C1C=CN(C2OC(CO)C(O)C2O)C(=O)C1` (centres undefined), the T/C was 120 % of control (endpoint: mean survival time, dose: 6.25 mg/kg/injection, schedule: Q01DX009 (ip), vehicle: saline with Tween-80); 124 % of control (endpoint: mean survival time, dose: 12.5 mg/kg/injection, schedule: Q01DX009 (ip), vehicle: saline with Tween-80); 113 % of control (endpoint: mean survival time, dose: 75.0 mg/kg/injection, schedule: Q01DX005 (ip), vehicle: saline); 102 % of control under setting [2]; 122 % of control (endpoint: mean survival time, dose: 150.0 mg/kg/injection, schedule: Q01DX005 (ip), vehicle: saline); 124 % of control (endpoint: mean survival time, dose: 150.0 mg/kg/injection, schedule: Q01DX005 (iv), vehicle: saline). Moreover, the T/C by setting is: under setting [9], 113 % of control; (endpoint: mean survival time, dose: 300.0 mg/kg/injection, schedule: Q01DX005 (ip), vehicle: saline) 101 % of control; (endpoint: mean survival time, dose: 300.0 mg/kg/injection, schedule: Q01DX005 (iv), vehicle: saline) 116 % of control; under setting [10], 93 % of control; (endpoint: mean survival time, dose: 600.0 mg/kg/injection, schedule: Q01DX005 (ip), vehicle: saline) 119 % of control; (endpoint: median survival time, dose: 12.5 mg/kg/injection, schedule: Q01DX009 (ip), vehicle: saline) 121 % of control. Further, the T/C is 172 % of control (endpoint: median survival time, dose: 25.0 mg/kg/injection, schedule: Q01DX009 (ip), vehicle: saline) and 113 % of control (endpoint: median survival time, dose: 75.0 mg/kg/injection, schedule: Q01DX009 (ip), vehicle: saline).

Turning to `CN(C)C=NC1(c2ccccc2)CCCCC1`, the T/C (endpoint: mean survival time, dose: 25.0 mg/kg/injection, schedule: Q04DX003 (ip), vehicle: saline with Tween-80) was 97 % of control; the T/C (endpoint: mean survival time, dose: 50.0 mg/kg/injection, schedule: Q04DX003 (ip), vehicle: saline with Tween-80) is 92 % of control; the T/C under setting [3] was 91 % of control and 97 % of control.

Consider `O=C(Nc1ccc(N=C=S)cc1Cl)c1cc(Cl)cc(Cl)c1O`, for which the T/C (endpoint: mean survival time, dose: 6.25 mg/kg/injection, schedule: Q01DX009 (ip), vehicle: Klucel (hydroxypropylcellulose) (HPC)) is 91 % of control and 104 % of control; the T/C (endpoint: mean survival time, dose: 12.5 mg/kg/injection, schedule: Q01DX009 (ip), vehicle: Klucel (hydroxypropylcellulose) (HPC)) was 97 % of control; the T/C (endpoint: mean survival time, dose: 25.0 mg/kg/injection, schedule: Q01DX009 (ip), vehicle: Klucel (hydroxypropylcellulose) (HPC)) was 96 % of control and 109 % of control; the T/C (endpoint: mean survival time, dose: 50.0 mg/kg/injection, schedule: Q01DX009 (ip), vehicle: Klucel (hydroxypropylcellulose) (HPC)) is 113 % of control and 103 % of control; the T/C (endpoint: mean survival time, dose: 100.0 mg/kg/injection, schedule: Q01DX009 (ip), vehicle: Klucel (hydroxypropylcellulose) (HPC)) was 97 % of control.

Consider `c1ccc(-c2nc3ccccc3s2)nc1`, for which the T/C was 96 % of control under setting [3], 103 % of control under setting [4] and 96 % of control under setting [8].

Turning to `COC(=O)c1[nH]nc(-c2ccc(N)cc2)c1N`, the T/C runs as follows: (endpoint: mean survival time, dose: 3.13 mg/kg/injection, schedule: Q01DX005 (ip), vehicle: other) 114 % of control; (endpoint: mean survival time, dose: 6.25 mg/kg/injection, schedule: Q01DX005 (ip), vehicle: other) 93 % of control; (endpoint: mean survival time, dose: 12.5 mg/kg/injection, schedule: Q01DX005 (ip), vehicle: other) 107 % of control; (endpoint: mean survival time, dose: 25.0 mg/kg/injection, schedule: Q01DX005 (ip), vehicle: other) 93 % of control; (endpoint: mean survival time, dose: 50.0 mg/kg/injection, schedule: Q01DX005 (ip), vehicle: other) 93 % of control.

`Cc1ccc(S(=O)(=O)OCOS(=O)(=O)c2ccc(C)cc2)cc1`: the T/C is, setting by setting: (endpoint: median survival time, dose: 50.0 mg/kg/injection, schedule: Q01DX009 (ip), vehicle: Klucel (hydroxypropylcellulose) (HPC)) 113 % of control; (endpoint: median survival time, dose: 100.0 mg/kg/injection, schedule: Q01DX009 (ip), vehicle: Klucel (hydroxypropylcellulose) (HPC)) 107 % of control and 111 % of control; (endpoint: median survival time, dose: 200.0 mg/kg/injection, schedule: Q01DX009 (ip), vehicle: Klucel (hydroxypropylcellulose) (HPC)) 122 % of control and 112 % of control; (endpoint: median survival time, dose: 800.0 mg/kg/injection, schedule: Q01DX009 (ip), vehicle: Klucel (hydroxypropylcellulose) (HPC)) 124 % of control and 103 % of control.

As to `CCCCCCCCCC(=O)Nc1ccc(C(=O)OCC)cc1`, the T/C reads like this: under setting [2], 95 % of control; under setting [9], 97 % of control; under setting [10], 98 % of control.

Take `CCCC/C=C/C1CCCCO1` (centres undefined): the T/C was 94 % of control under setting [1], 97 % of control under setting [2] and 105 % of control under setting [9].
